Data reported in ChEMBL document CHEMBL1821609, “Combined SVM-based and docking-based virtual screening for retrieving novel inhibitors of c-Met” (Eur J Med Chem, 2011).
pIC50: −log10 of the molar value.

Molecular target: Hepatocyte growth factor receptor (Homo sapiens, UniProt P08581)
Sequence (P08581 whole entry): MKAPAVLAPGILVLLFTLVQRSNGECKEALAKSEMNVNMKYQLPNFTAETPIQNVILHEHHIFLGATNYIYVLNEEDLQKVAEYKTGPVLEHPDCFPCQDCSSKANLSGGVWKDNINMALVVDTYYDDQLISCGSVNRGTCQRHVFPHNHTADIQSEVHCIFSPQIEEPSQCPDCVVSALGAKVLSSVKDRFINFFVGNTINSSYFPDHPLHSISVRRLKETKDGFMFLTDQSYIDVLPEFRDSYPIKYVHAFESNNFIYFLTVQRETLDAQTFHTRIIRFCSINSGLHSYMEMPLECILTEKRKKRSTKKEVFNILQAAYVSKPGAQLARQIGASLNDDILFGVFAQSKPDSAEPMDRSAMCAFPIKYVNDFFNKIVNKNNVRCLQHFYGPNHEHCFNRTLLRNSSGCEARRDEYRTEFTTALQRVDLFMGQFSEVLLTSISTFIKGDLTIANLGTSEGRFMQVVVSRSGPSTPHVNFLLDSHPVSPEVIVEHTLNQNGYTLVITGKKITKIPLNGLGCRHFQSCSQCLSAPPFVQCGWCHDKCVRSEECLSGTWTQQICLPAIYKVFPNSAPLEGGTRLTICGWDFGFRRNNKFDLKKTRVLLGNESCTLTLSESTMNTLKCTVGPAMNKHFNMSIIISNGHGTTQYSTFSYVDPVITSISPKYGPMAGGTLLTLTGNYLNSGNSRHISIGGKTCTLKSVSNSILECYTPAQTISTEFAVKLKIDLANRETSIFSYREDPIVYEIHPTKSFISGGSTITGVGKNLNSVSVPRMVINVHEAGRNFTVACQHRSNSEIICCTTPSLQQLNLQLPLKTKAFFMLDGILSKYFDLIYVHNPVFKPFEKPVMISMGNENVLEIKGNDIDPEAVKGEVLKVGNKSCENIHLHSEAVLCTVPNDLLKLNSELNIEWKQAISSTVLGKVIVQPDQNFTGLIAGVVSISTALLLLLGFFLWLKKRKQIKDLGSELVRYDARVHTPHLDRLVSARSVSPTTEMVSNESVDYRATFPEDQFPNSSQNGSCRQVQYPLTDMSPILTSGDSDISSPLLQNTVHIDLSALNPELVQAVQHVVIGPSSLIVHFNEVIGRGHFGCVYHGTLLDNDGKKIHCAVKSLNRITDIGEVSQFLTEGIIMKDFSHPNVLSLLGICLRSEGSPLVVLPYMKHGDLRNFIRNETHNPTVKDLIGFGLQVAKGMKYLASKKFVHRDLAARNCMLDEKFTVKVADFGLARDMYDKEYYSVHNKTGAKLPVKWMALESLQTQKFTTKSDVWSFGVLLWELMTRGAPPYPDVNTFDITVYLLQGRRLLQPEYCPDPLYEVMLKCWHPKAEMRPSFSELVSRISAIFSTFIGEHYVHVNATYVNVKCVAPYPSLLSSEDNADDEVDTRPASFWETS
Description: Inhibition of human c-MET

SMILES: CN(CCN1CCN(N)CC1)Cc1ccc(-c2cc3nccc(Oc4ccc(NC(=O)N5CCN(c6ccccc6)C5=O)cc4F)c3s2)cc1
- pIC50: 7.55

SMILES: CCn1ccnc1-c1cc2cccc(Oc3ccc(NC(=S)NC(=O)Cc4ccccc4)cc3F)c2s1
- pIC50: 6.97

SMILES: COc1cc2nccc(Oc3ccc(-c4cnc(Nc5cccc(F)c5)n(C)c4=O)cc3F)c2cc1OC
- pIC50: 7.42

SMILES: COc1cc2nccc(Oc3ccc(-c4cnc(C(N)c5ccccc5)n(C)c4=O)cc3F)c2cc1OC (stereo unspecified)
- pIC50: 7.14

SMILES: Cc1cc(CCN2CCCC2)c(C)c2c1N(CCN1CCCCC1)C(=O)/C2=N\NC(=O)C(C)c1ccc(O)cc1 (stereo unspecified)
- pIC50: 6.70

SMILES: COc1cc2nccc(Oc3ccc(NC(=O)NCC(=O)N(C)C)nc3)c2cc1OC
- pIC50: 5.02

SMILES: Cc1[nH]c(/C=C2\C(=O)Nc3ccc(S(=O)(=O)N4CCc5ccccc54)cc32)c(C)c1C(=O)N1CCN(C)CC1
- pIC50: 7.40

SMILES: O=C(Nc1ccc(Oc2ccnc3ccsc23)c(F)c1)NC1CC1c1ccccc1 (stereo unspecified)
- pIC50: 5.18

SMILES: O=C(Nc1ccc(Oc2ccnc3ccsc23)cc1)NC1CC1c1ccccc1 (stereo unspecified)
- pIC50: 5.00

SMILES: COc1cc2c(Oc3ccc(-c4cnc(Cc5ccccc5)n(C)c4=O)cc3F)ccnc2cc1OCCCN1CCN(C)CC1
- pIC50: 8.04

SMILES: CCN1CCN(CCCOc2cc3nccc(Oc4ccc(-c5cnc(Cc6ccccc6)n(C)c5=O)cc4F)c3cc2OC)CC1
- pIC50: 7.68

SMILES: Cn1ccnc1-c1cc2nccc(Oc3ccc(NC(=O)NC(=O)c4c(F)cccc4F)nc3)c2s1
- pIC50: 5.36

SMILES: O=C(Cc1ccccc1)NC(=S)Nc1ccc(Oc2cccc3cc(-c4ncccn4)sc23)c(F)c1
- pIC50: 6.74

SMILES: Cn1cnc(-c2cc3cccc(Oc4ccc(NC(=S)NC(=O)Cc5ccccc5)cc4F)c3s2)c1
- pIC50: 7.54

SMILES: CN(C)CCNC(=O)c1cc(Br)c2c(c1)NC(=O)/C2=N\NC(=O)Cc1ccc2c(c1)CCO2
- pIC50: 7.00

SMILES: Cc1cccc2c1NC(=O)/C2=N\NC(=O)Cc1ccc(O)c(Cl)c1
- pIC50: 7.70

SMILES: CC(C)(C)OC(=O)c1cnc2ccn(S(=O)(=O)c3ccccc3[N+](=O)[O-])c2c1
- pIC50: 7.70

SMILES: Cn1cc(CC(=O)N/N=C2\C(=O)Nc3ccc(C(=O)N4CCCC4CN4CCCC4)c(Cl)c32)ccc1=O (stereo unspecified)
- pIC50: 5.38

SMILES: CC(C(=O)NN=C1C(=O)Nc2ccc(C(=O)N3CCCC3CN3CCCC3)c(Cl)c21)c1ccc(F)cc1 (stereo unspecified)
- pIC50: 6.37

SMILES: CN1CCN(c2cnc3cccc(OCc4cccc([N+](=O)[O-])c4)c3c2)CC1
- pIC50: 7.24

SMILES: COc1cc2ncnc(Oc3ccc(NC(=O)NC(=O)c4c(F)cccc4F)nc3)c2cc1OC
- pIC50: 6.37

SMILES: COc1cc2c(Oc3ccc(-c4cnc(Nc5ccc(F)cc5)n(C)c4=O)cc3F)ccnc2cc1OCCCN1CCOCC1
- pIC50: 8.31

SMILES: COc1cc2c(Oc3ccc(-c4cnc(Cc5ccc(F)cc5)n(C)c4=O)cc3F)ccnc2cc1OCCCN1CCOCC1
- pIC50: 7.77

SMILES: O=C(Cc1ccccc1)NC(=O)Nc1ccc(Oc2ccnc3ccsc23)cc1F
- pIC50: 6.52

SMILES: O=C(Cc1ccccc1)NC(=S)Nc1ccc(Oc2ccnc3cc(C(=O)C4CCCO4)sc23)c(F)c1 (stereo unspecified)
- pIC50: 6.89

SMILES: Cc1[nH]c(/C=C2\C(=O)Nc3ccc(S(=O)(=O)N(C)c4cccc(Cl)c4)cc32)c(C)c1CCCN1CCOCC1
- pIC50: 6.77

SMILES: COc1cc2c(Oc3ccc(-c4cnc(Cc5ccccc5)n(C)c4=O)cc3F)ccnc2cc1OCCCN1CCOCC1
- pIC50: 7.77

SMILES: O=C(Cc1ccc2c(c1)CCO2)N/N=C1\C(=O)Nc2cc(C(=O)NCCCO)cc(Br)c21
- pIC50: 7.19

SMILES: COc1ccc2c(Oc3ccc(NC(=O)c4c(C)n(CC(C)(C)O)n(-c5ccccc5)c4=O)cc3F)ccnc2c1
- pIC50: 8.57

SMILES: O=C(Cc1ccc2c(c1)CCO2)NN=C1C(=O)Nc2cc(C(=O)NCN3CCOCC3)cc(Br)c21
- pIC50: 9.15

SMILES: COc1cc2nccc(Oc3ccc(NC(=O)NCCc4c(Cl)cccc4Cl)nc3)c2cc1OC
- pIC50: 5.28
